System: PDC 899932-113-R3-J6 complex spheroid viability
Experiment: Anticancer human tumor 899932-113-R3-J6-PDC patient-derived melanoma cell line growth inhibition [RAS]
Settings: for IC50: curve of first compound; for viability, T/C: stronger effect = lower value
Procedure, shortened: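 Tumour cells grown as complex spheroids with HUVEC endothelial cells and mesenchymal stem cells, treated with RAS pathway inhibitor combinations. Each agent spans half-log steps from near clinical Cmax, or 10 microM where Cmax is unknown.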

[1] = second compound 0.000949 µM, first compound 0.0316 µM
[2] = second compound 0.000949 µM, first compound 0.1 µM
[3] = second compound 0.000949 µM, first compound 0.316 µM
[4] = second compound 0.000949 µM, first compound 1 µM
[5] = second compound 0.000949 µM, first compound 3.16 µM
[6] = second compound 0.000949 µM, first compound 10 µM
[7] = second compound 0.003 µM, first compound 0.0316 µM
[8] = second compound 0.003 µM, first compound 0.1 µM
[9] = second compound 0.003 µM, first compound 0.316 µM
[10] = second compound 0.003 µM, first compound 1 µM
[11] = second compound 0.003 µM, first compound 3.16 µM
[12] = second compound 0.003 µM, first compound 10 µM
[13] = second compound 0.00949 µM, first compound 0.0316 µM
[14] = second compound 0.00949 µM, first compound 0.1 µM
[15] = second compound 0.00949 µM, first compound 0.316 µM
[16] = second compound 0.00949 µM, first compound 1 µM
[17] = second compound 0.00949 µM, first compound 3.16 µM
[18] = second compound 0.00949 µM, first compound 10 µM
[19] = second compound 0.03 µM, first compound 0.0316 µM
[20] = second compound 0.03 µM, first compound 0.1 µM
[21] = second compound 0.03 µM, first compound 0.316 µM
[22] = second compound 0.03 µM, first compound 1 µM
[23] = second compound 0.03 µM, first compound 3.16 µM
[24] = second compound 0.03 µM, first compound 10 µM
[25] = second compound 0.0949 µM, first compound 0.0316 µM
[26] = second compound 0.0949 µM, first compound 0.1 µM
[27] = second compound 0.0949 µM, first compound 0.316 µM
[28] = second compound 0.0949 µM, first compound 1 µM
[29] = second compound 0.0949 µM, first compound 3.16 µM
[30] = second compound 0.0949 µM, first compound 10 µM
[31] = second compound 0.3 µM, first compound 0.0316 µM
[32] = second compound 0.3 µM, first compound 0.1 µM
[33] = second compound 0.3 µM, first compound 0.316 µM
[34] = second compound 0.3 µM, first compound 1 µM
[35] = second compound 0.3 µM, first compound 3.16 µM
[36] = second compound 0.3 µM, first compound 10 µM
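Wherever viability, T/C is given: spheroids exposed to agents for seven days before readout; 100% = DMSO vehicle control wells.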

Cc1nc(N2CCC3(CC2)COC(C)C3N)c(CO)nc1Sc1ccnc(N)c1Cl (stereo unspecified) + CCn1c(-c2cccnc2C(C)OC)c2c3cc(ccc31)N1CCOC(CC(NC(=O)C(C(C)C)N(C)C(=O)C3(F)CCN(C(=O)C#CC(C)(C)N(C)C)CC3)C(=O)N3CCCC(N3)C(=O)OCC(C)(C)C2)C1
IC50 (second compound 0.000949 µM): > 10 µM | IC50 (second compound 0.003 µM): > 10 µM | IC50 (second compound 0.00949 µM): > 10 µM | IC50 (second compound 0.03 µM): > 10 µM | IC50 (second compound 0.0949 µM): > 10 µM | IC50 (second compound 0.3 µM): > 10 µM | viability, T/C [1]: 109% | viability, T/C [2]: 102% | viability, T/C [3]: 108% | viability, T/C [4]: 113% | viability, T/C [5]: 112% | viability, T/C [6]: 118% | viability, T/C [7]: 102% | viability, T/C [8]: 96.8% | viability, T/C [9]: 107% | viability, T/C [10]: 116% | viability, T/C [11]: 109% | viability, T/C [12]: 110% | viability, T/C [13]: 93.2% | viability, T/C [14]: 95.5% | viability, T/C [15]: 112% | viability, T/C [16]: 121% | viability, T/C [17]: 114% | viability, T/C [18]: 110% | viability, T/C [19]: 91.7% | viability, T/C [20]: 89.3% | viability, T/C [21]: 108% | viability, T/C [22]: 110% | viability, T/C [23]: 108% | viability, T/C [24]: 106% | viability, T/C [25]: 91.2% | viability, T/C [26]: 85.8% | viability, T/C [27]: 103% | viability, T/C [28]: 94.2% | viability, T/C [29]: 105% | viability, T/C [30]: 107% | viability, T/C [31]: 82.5% | viability, T/C [32]: 80.9% | viability, T/C [33]: 95.6% | viability, T/C [34]: 81.6% | viability, T/C [35]: 94.3% | viability, T/C [36]: 90.7%

NC1c2ccccc2OC12CCN(c1cnc3c(N4CCCc5ncccc54)n[nH]c3n1)CC2 (stereo unspecified) + CCn1c(-c2cccnc2C(C)OC)c2c3cc(ccc31)N1CCOC(CC(NC(=O)C(C(C)C)N(C)C(=O)C3(F)CCN(C(=O)C#CC(C)(C)N(C)C)CC3)C(=O)N3CCCC(N3)C(=O)OCC(C)(C)C2)C1
IC50 (second compound 0.000949 µM): > 10 µM | IC50 (second compound 0.003 µM): > 10 µM | IC50 (second compound 0.00949 µM): > 10 µM | IC50 (second compound 0.03 µM): > 10 µM | IC50 (second compound 0.0949 µM): > 10 µM | IC50 (second compound 0.3 µM): > 10 µM | viability, T/C [1]: 113% | viability, T/C [2]: 102% | viability, T/C [3]: 112% | viability, T/C [4]: 120% | viability, T/C [5]: 114% | viability, T/C [6]: 101% | viability, T/C [7]: 113% | viability, T/C [8]: 112% | viability, T/C [9]: 111% | viability, T/C [10]: 120% | viability, T/C [11]: 111% | viability, T/C [12]: 110% | viability, T/C [13]: 112% | viability, T/C [14]: 112% | viability, T/C [15]: 110% | viability, T/C [16]: 129% | viability, T/C [17]: 120% | viability, T/C [18]: 109% | viability, T/C [19]: 112% | viability, T/C [20]: 116% | viability, T/C [21]: 105% | viability, T/C [22]: 117% | viability, T/C [23]: 112% | viability, T/C [24]: 106% | viability, T/C [25]: 100% | viability, T/C [26]: 102% | viability, T/C [27]: 94.4% | viability, T/C [28]: 113% | viability, T/C [29]: 108% | viability, T/C [30]: 98.5% | viability, T/C [31]: 97.7% | viability, T/C [32]: 85.1% | viability, T/C [33]: 95.7% | viability, T/C [34]: 96.8% | viability, T/C [35]: 92.6% | viability, T/C [36]: 85.7%

Nc1ccn(C2OC(CO)C(O)C2(F)F)c(=O)n1 (stereo unspecified) + CCn1c(-c2cccnc2C(C)OC)c2c3cc(ccc31)N1CCOC(CC(NC(=O)C(C(C)C)N(C)C(=O)C3(F)CCN(C(=O)C#CC(C)(C)N(C)C)CC3)C(=O)N3CCCC(N3)C(=O)OCC(C)(C)C2)C1
IC50 (second compound 0.000949 µM): 0.0198 µM | IC50 (second compound 0.003 µM): 0.0207 µM | IC50 (second compound 0.00949 µM): 0.0205 µM | IC50 (second compound 0.03 µM): 0.0196 µM | IC50 (second compound 0.0949 µM): 0.0209 µM | IC50 (second compound 0.3 µM): 0.0183 µM | viability, T/C (second compound 0.000949 µM, first compound 0.00316 µM): 103% | viability, T/C (second compound 0.000949 µM, first compound 0.01 µM): 71.2% | viability, T/C [1]: 35.9% | viability, T/C [2]: 20.9% | viability, T/C [3]: 17.4% | viability, T/C [4]: 19.2% | viability, T/C (second compound 0.003 µM, first compound 0.00316 µM): 99.8% | viability, T/C (second compound 0.003 µM, first compound 0.01 µM): 74.8% | viability, T/C [7]: 36.3% | viability, T/C [8]: 17.1% | viability, T/C [9]: 15.1% | viability, T/C [10]: 17.8% | viability, T/C (second compound 0.00949 µM, first compound 0.00316 µM): 103% | viability, T/C (second compound 0.00949 µM, first compound 0.01 µM): 73.7% | viability, T/C [13]: 36.4% | viability, T/C [14]: 19.8% | viability, T/C [15]: 16.1% | viability, T/C [16]: 20.6% | viability, T/C (second compound 0.03 µM, first compound 0.00316 µM): 101% | viability, T/C (second compound 0.03 µM, first compound 0.01 µM): 70.3% | viability, T/C [19]: 36.4% | viability, T/C [20]: 19.2% | viability, T/C [21]: 19% | viability, T/C [22]: 19.8% | viability, T/C (second compound 0.0949 µM, first compound 0.00316 µM): 95.2% | viability, T/C (second compound 0.0949 µM, first compound 0.01 µM): 73.4% | viability, T/C [25]: 37.4% | viability, T/C [26]: 20.5% | viability, T/C [27]: 19.3% | viability, T/C [28]: 20.1% | viability, T/C (second compound 0.3 µM, first compound 0.00316 µM): 84.4% | viability, T/C (second compound 0.3 µM, first compound 0.01 µM): 69.4% | viability, T/C [31]: 32.7% | viability, T/C [32]: 20.8% | viability, T/C [33]: 21.6% | viability, T/C [34]: 25.9%
